Experimental data reported in US20220079910A1, “Cancer Treatment Useing Docetaxel by Controlling Peak Plasma Levels” (Modra Pharmaceuticals B.V., priority 2018, published 2022).
Read-outs that look alike come from different tables or passages of the source.

Experiments:
[1] = Phase I trial N07DOW: docetaxel plasma exposure after oral docetaxel with ritonavir; format: in vivo; conditions: human, mean±SD; for AUC(0-t): read-out: docetaxel AUC0-48 h
Protocol: (§1) We treated in a phase I trial (N07DOW) cancer patients (n=100) with oral docetaxel in combination with ritonavir. The dose was administered on one day (single dose), once per week. Data presented as mean±standard deviation. If available, kinetic data of 2 cycles per patient were used.

[2] = test system: metastasized castration-resistant prostate cancer (mCRPC); test: Phase IB/IIA study in mCRPC (M17DOC): PSA response, radiological response, treatment cycles; format: in vivo, human; conditions: FIG. 3 / FIG. 6; target range 500-1500 h*ng/mL (FIG. 6)
From the text: In FIG. 8 a plot is shown of the number of treatment cycles (with a maximum of 30) in a multicenter clinical phase IB study in mCRPC (M17DOC) of evaluable patients. Patients were scored, as PSA progression (black bars); PSA equal to baseline or decline (<50%) (dark grey bars); PSA response (decline ≥50%) (medium grey bars); clinical response (pain reduction) up to the maximum treatment period permitted in the protocol of 30 weeks (light grey bars).
(§4) A multicenter clinical phase IB/IIA study was conducted in mCRPC (M17DOC), wherein ModraDoc006, an oral docetaxel formulation was combined with ritonavir (ModraDoc006/r), in metastasized castration-resistant prostate cancer (mCRPC).
(§5) The study included patients diagnosed with metastasized castration-resistant prostate cancer (mCRPC), dosed in a bi-daily once weekly (BIDW) dosing schedule at 4 dose levels (see table below).
This study included 20 evaluable patients diagnosed with metastasized castration-resistant prostate cancer (mCRPC), dosed in a bi-daily once weekly (BIDW) dosing schedule at 4 dose levels (see table).

[3] = weekly docetaxel 35 mg/m2 as 0.5 h intravenous infusion; cited from earlier work
cancer patients [4] = test: Phase I trial N07DOW: treatment duration, SAEs/DLTs, best response; format: in vivo, human; conditions: n=100
Protocol: as §1
Treatment duration of 19 patients was from 19 up to 72 weeks. These were patients with the following cancers. Head and neck (n=1), non-small cell lung (n=8), anal (n=1), primary unknown (n=3), ovarian (n=1), esophageal (n=1), urothelial cell (n=2), leiomyosarcoma (n=1) and neuroendocrine lung carcinoma (n=1). The docetaxel exposure in these patients was:
(§2) The docetaxel exposure in these patients was:
Fiftytwo patients had SD (stable disease) (n=42) or PR (partial response) (n=10) as best treatment response.

[5] = IV docetaxel q3w AUC in mCRPC patients vs other tumors (De Vries Schultink et al.); conditions: human, in vivo, weekly equivalent, read-out: weekly AUC of IV docetaxel in mCRPC patients (q3w AUC divided by 3)
Protocol: The target minimum AUC threshold in mCRPC patients is highlighted and ranges from about 600-800 h*ng/mL.

[6] = cited from earlier work
[7] = Phase I trial N10BOM: docetaxel plasma exposure after oral docetaxel with ritonavir; format: in vivo; conditions: human; for AUC(0-t): read-out: docetaxel AUC0-48 h
Protocol: (§3) We treated in a phase I trial (N10BOM) cancer patients (n=64) with oral docetaxel in combination with ritonavir. The dose was administered bi-daily once per week continuously.

cancer patients [8] = test: Phase I trial N10BOM: treatment duration, SAEs/DLTs, best response; format: in vivo, human; conditions: n=64
Protocol: as §3
Treatment duration of 8 patients was from 19 up to 55 weeks. These were patients with the following cancers. Head and neck cancer (n=2; PR), non-small cell lung (n=4; SD), colorectal (n=1; SD) and giant cell neuroendocrine carcinoma (n=1; SD). The docetaxel exposure in these patients was:
as §2
Twentyfive patients had SD or PR as best treatment response.

[9] = in vivo
Protocol: The described method was successfully applied in clinical studies with oral administration of docetaxel in combination with ritonavir.
Our next step was to investigate this oral treatment schedule in patients with metastatic Castration Resistant Prostate Cancer (mCRPC) in a phase IB/.IIA trial.
as §4, §5

[10] = Weekly intravenous docetaxel infusion: AUC and CMAX (Baker et al.); format: in vivo, human; conditions: IV 35 mg/m2 in 0.5 h vs oral in patients with solid tumors (not prostate)
[11] = oral, 10 patients with SAEs and DLTs (≥grade 3)
[12] = oral, 25 patients with SD or PR as best treatment response
[13] = po, oral docetaxel + ritonavir bi-daily once per week, 8 patients with treatment duration 19 up to 55 weeks

CC(=O)O[C@@]12CO[C@@H]1C[C@H](O)[C@@]1(C)C(=O)[C@H](O)C3=C(C)[C@@H](OC(=O)[C@H](O)[C@@H](NC(=O)OC(C)(C)C)c4ccccc4)C[C@@](O)([C@@H](OC(=O)c4ccccc4)[C@H]21)C3(C)C [docetaxel]
AUC(0-t) ([1]; oral, 15 patients with SAEs and DLTs (≥grade 3)): 2340 ± 1450 ng·h/mL | Cmax ([1]; oral, 15 patients with SAEs and DLTs (≥grade 3), read-out: docetaxel CMAX): 351 ± 244 ng/mL | AUC(0-t) ([1]; oral, 52 patients with SD or PR as best treatment response): 1080 ± 1020 ng·h/mL | Cmax ([1]; oral, 52 patients with SD or PR as best treatment response, read-out: docetaxel CMAX): 197 ± 186 ng/mL | AUC(0-t) ([1]; po, oral docetaxel + ritonavir, single dose once per week, 19 patients with treatment duration 19 up to 72 weeks): 803 ± 634 ng·h/mL | Cmax ([1]; po, oral docetaxel + ritonavir, single dose once per week, 19 patients with treatment duration 19 up to 72 weeks, read-out: docetaxel CMAX (peak)): 148 ± 113 ng/mL | length of treatment (number of cycles) in patients in a target docetaxel AUC range [2]: trending longer | AUC [3]: 1480 ± 410 ng·h/mL | patients with PR (partial response) as best treatment response (cancer patients [4]): 10 patients | patients with SAEs and DLTs (possible, probable, definite; ≥grade 3) (cancer patients [4]): 15 patients | patients with SD (stable disease) as best treatment response (cancer patients [4]): 42 patients | patients with SD or PR as best treatment response (cancer patients [4]): Fiftytwo | AUC [5]: ~600 ng·h/mL | ratio of AUCs for IV docetaxel in mCRPC patients vs other tumors ([6]; 1820/3300): 55% | q3w AUC of IV docetaxel in mCRPC patients ([6]; IV, every three weeks): 1820 ng·h/mL | Cmax [7, 11]: 175 ± 117 ng/mL | AUC(0-t) [7, 11]: 1810 ± 1260 ng·h/mL | Cmax [7, 12]: 140 ± 83 ng/mL | AUC(0-t) [7, 12]: 1240 ± 702 ng·h/mL | Cmax [7, 13]: 143 ± 67 ng/mL | AUC(0-t) [7, 13]: 1220 ± 620 ng·h/mL | patients with SAEs and DLTs (possible, probable, definite; ≥grade 3) (cancer patients [8]): 10 patients | patients with SD or PR as best treatment response (cancer patients [8]): Twentyfive | docetaxel clearance in mCRPC patient population vs patients with other solid tumors [9]: higher clearance | CMAX after intravenous administration relative to oral ModraDoc006/r 30-20/100-100 [10]: ten-fold higher
